These results are taken from ChEMBL document CHEMBL1201862, “PubChem BioAssay data set” (2004).

Among the test systems are NCI-H522; SK-MEL-28; M14; HCT-116; HL-60; NCI-H460; IGROV-1; NCI/ADR-RES; TK-10; OVCAR-8; HCC 2998; DU-145; NCI-H23; HOP-92; Hs-578T; SW-620; SK-MEL-5; PC-3; RPMI-8226.
What all share (test): NCI anticancer screen, dose series, 48 h

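Protocol summary: plate cells (96-well), add compound at 5 concentrations, incubate 48 h, interpolate endpoints linearly. GI50 is the concentration that inhibits growth by half.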 Calls of active or inactive are those of the source. No stated cut-off is given here; in the data, active = GI50 up to about 1.1 µM and inactive = higher.

In the case of `O=C(Sc1c(-c2ccccc2)c(=O)n(-c2ccccc2)c(=S)n1-c1ccccc1)c1ccc(Cl)cc1`, the GI50 in the test on NCI-H522 is 81.5 µM (inactive); in the test on SK-MEL-28 it was > 100 µM (inactive); with M14, > 100 µM (inactive); in the test with HCT-116 it was > 100 µM (inactive); in the test on HL-60, > 100 µM (inactive); in the test with NCI-H460 it was > 100 µM (inactive). In addition, the GI50 in the test with IGROV-1 is 63 µM (inactive); with NCI/ADR-RES it was > 100 µM (inactive); in the test with TK-10 it was > 100 µM (inactive); in the test on OVCAR-8, > 100 µM (inactive); in the test on HCC 2998 it was > 100 µM (inactive); in the test on DU-145 it was > 100 µM (inactive). The GI50 with NCI-H23 is > 100 µM (inactive); in the test on HOP-92, 55.6 µM (inactive); in the test on Hs-578T, > 100 µM (inactive); in the test on SW-620, > 100 µM (inactive).
For `Fc1cc(-c2cc(-c3ccccc3)n[nH]2)c(Cl)cc1Cl`, the GI50 in the test on NCI-H522 is > 100 µM (inactive); in the test on SK-MEL-5, > 100 µM (inactive); in the test with PC-3 it was > 100 µM (inactive); with SK-MEL-28, > 100 µM (inactive); with M14 it was > 100 µM (inactive); in the test with RPMI-8226, 30.9 µM (inactive). In addition, the GI50 in the test with HCT-116 is > 100 µM (inactive); in the test on HL-60 it was 28.9 µM (inactive); in the test on NCI-H460, > 100 µM (inactive); in the test with IGROV-1, 1.77 µM (inactive); in the test with NCI/ADR-RES, > 100 µM (inactive); with TK-10, > 100 µM (inactive). Further, the GI50 in the test with OVCAR-8, in the test with DU-145, in the test with NCI-H23, in the test on HOP-92, in the test on Hs-578T and in the test with SW-620 was > 100 µM (inactive) throughout.
For `CCCN(CCC)c1c([N+](=O)[O-])cc(C(N)=O)cc1[N+](=O)[O-]`, the GI50 was 36.7 µM (inactive) in the test on NCI-H522; 1.16 µM (inactive) in the test on SK-MEL-5; > 100 µM (inactive) in the test with SK-MEL-28; > 100 µM (inactive) in the test with M14; > 100 µM (inactive) in the test on RPMI-8226; > 100 µM (inactive) with HCT-116. The GI50 in the test on HL-60 is 27.8 µM (inactive); in the test with NCI-H460, 68.2 µM (inactive); in the test on IGROV-1, > 100 µM (inactive); in the test on TK-10, > 100 µM (inactive); in the test with OVCAR-8, 92.9 µM (inactive); in the test on HCC 2998, 91 µM (inactive). Further, the GI50 with NCI-H23 was > 100 µM (inactive).
Consider `COc1ccc2oc(=N)c(C(=O)NCc3ccccc3)cc2c1`, for which the GI50 in the test with NCI-H522 is 19.5 µM (inactive); in the test with SK-MEL-5 it was 27.9 µM (inactive); in the test with PC-3, 30.5 µM (inactive); in the test on SK-MEL-28 it was 26.2 µM (inactive); in the test on M14, 33.2 µM (inactive); with RPMI-8226 it was 45 µM (inactive). The GI50 in the test on HCT-116 was 30.1 µM (inactive); with HL-60, > 100 µM (inactive); with NCI-H460, 28.5 µM (inactive); in the test with IGROV-1, 19.9 µM (inactive); in the test on NCI/ADR-RES, 14.9 µM (inactive); in the test with TK-10, 22.6 µM (inactive). In addition, the GI50 in the test on OVCAR-8 is 16.7 µM (inactive); with DU-145 it was 24.3 µM (inactive); with NCI-H23, 18.1 µM (inactive); in the test on Hs-578T, 15.8 µM (inactive); in the test with SW-620 it was 19 µM (inactive).
With `Cc1ccccc1NC(=O)C(=O)c1c(O)c2ccc(O)cc2oc1=O`, the GI50 in the test on NCI-H522, in the test with SK-MEL-5, in the test on SK-MEL-28, with M14, in the test on RPMI-8226 and in the test with HCT-116 was > 100 µM (inactive) in each case. Also, the GI50 with HL-60, in the test on NCI-H460, in the test on IGROV-1, in the test on TK-10, in the test with OVCAR-8 and in the test on NCI-H23 was > 100 µM (inactive) each time. The GI50 in the test with HOP-92 and in the test with SW-620 was > 100 µM (inactive) in each case.
On to `O=C(c1cccs1)N(C(=O)N1CCC(c2ccccc2)CC1)c1ccccc1`, for which the GI50 with SK-MEL-5 is 16.8 µM (inactive); in the test with PC-3 it was 0.873 µM (active); in the test with SK-MEL-28, 43.9 µM (inactive); in the test on M14, 40.6 µM (inactive); in the test on RPMI-8226, 12.6 µM (inactive); with HCT-116, 42.5 µM (inactive). In addition, the GI50 in the test on HL-60 was 28.8 µM (inactive); in the test on NCI-H460, 43.7 µM (inactive); with IGROV-1, 14.7 µM (inactive); with NCI/ADR-RES, 24.8 µM (inactive); in the test with TK-10, 67 µM (inactive); in the test with OVCAR-8, 39.4 µM (inactive). Besides, the GI50 with DU-145 was > 100 µM (inactive); with NCI-H23 it was 40.6 µM (inactive); with Hs-578T, 27.5 µM (inactive); in the test on SW-620, 51.5 µM (inactive).
In the case of `Cc1cc2nc3c(C#N)c(-c4ccccc4)cc(Nc4ccc(Cl)cc4)n3c2cc1C`, the GI50 was 9.57 µM (inactive) in the test with NCI-H522; > 100 µM (inactive) with SK-MEL-5; > 100 µM (inactive) in the test with PC-3; > 100 µM (inactive) with SK-MEL-28; > 100 µM (inactive) in the test with M14; 5.6 µM (inactive) with RPMI-8226. Further, the GI50 in the test on HCT-116 was > 100 µM (inactive); with NCI-H460, 28.5 µM (inactive); in the test on NCI/ADR-RES, > 100 µM (inactive); in the test with TK-10, > 100 µM (inactive); in the test with OVCAR-8, 48.2 µM (inactive); in the test on HCC 2998, > 100 µM (inactive). The GI50 in the test on NCI-H23 and in the test on SW-620 was > 100 µM (inactive) each time.
As to `C[C@@H](NC(=O)OC1C=CC2(CC1)C(=O)N(C)c1ccccc12)c1cccc2ccccc12` (stereo not given in full), the GI50 was 5.24 µM (inactive) in the test with NCI-H522; 5.32 µM (inactive) in the test with SK-MEL-5; > 25 µM (inactive) in the test with PC-3; > 25 µM (inactive) with SK-MEL-28; 14.4 µM (inactive) in the test on M14; 8.79 µM (inactive) with RPMI-8226. The GI50 was 4.56 µM (inactive) in the test on HCT-116; 0.944 µM (active) with HL-60; 18.2 µM (inactive) in the test with NCI-H460; 4.86 µM (inactive) in the test with IGROV-1; 11.7 µM (inactive) with NCI/ADR-RES; > 25 µM (inactive) in the test with TK-10. Also, the GI50 is > 25 µM (inactive) in the test on OVCAR-8; > 25 µM (inactive) in the test with HCC 2998; > 25 µM (inactive) in the test on DU-145; 12.2 µM (inactive) with NCI-H23; > 25 µM (inactive) in the test with HOP-92; > 25 µM (inactive) in the test with SW-620.
As to `OC(c1nc2ccccc2[nH]1)C(O)C(O)C(O)c1nc2ccccc2[nH]1` (stereo not given), the GI50 in the test on NCI-H522, with SK-MEL-5, with PC-3, in the test on SK-MEL-28, with M14 and in the test on RPMI-8226 was > 100 µM (inactive) each time. For the same compound, the GI50 with HCT-116, in the test with HL-60, with NCI-H460, in the test on IGROV-1, in the test with NCI/ADR-RES and in the test on TK-10 was > 100 µM (inactive) throughout. In addition, the GI50 in the test on OVCAR-8 is > 100 µM (inactive); with DU-145, > 100 µM (inactive); with HOP-92, > 100 µM (inactive); in the test with Hs-578T, 91.4 µM (inactive); in the test with SW-620 it was > 100 µM (inactive).
`CC(NC(=O)C(Cc1ccc(OC(=O)c2ccccc2)cc1)NC(=O)OC(C)(C)C)C(=O)NCC(=O)NC(Cc1ccccc1)NC(=O)OCc1ccccc1` (stereo not given): the GI50 was > 100 µM (inactive) in the test with NCI-H522; 71.6 µM (inactive) in the test on SK-MEL-5; > 100 µM (inactive) with PC-3; > 100 µM (inactive) with SK-MEL-28; > 100 µM (inactive) in the test on M14; 50.6 µM (inactive) in the test with RPMI-8226. In addition, the GI50 is > 100 µM (inactive) in the test on HCT-116; > 100 µM (inactive) with HL-60; > 100 µM (inactive) in the test on NCI-H460; > 100 µM (inactive) in the test on IGROV-1; > 10 µM (inactive) in the test on NCI/ADR-RES; > 100 µM (inactive) in the test with TK-10. Moreover, the GI50 was > 100 µM (inactive) in the test with OVCAR-8; > 100 µM (inactive) in the test with DU-145; > 100 µM (inactive) in the test with NCI-H23; > 100 µM (inactive) in the test on HOP-92; 59.8 µM (inactive) in the test with Hs-578T; > 100 µM (inactive) in the test with SW-620.
As for `Clc1ccc(-c2c3nc(c(-c4ccc(Cl)cc4)c4ccc([nH]4)c(-c4ccc(Cl)cc4)c4nc(c(-c5ccc(Cl)cc5)c5ccc2[nH]5)C=C4)C=C3)cc1`, the GI50 in the test on NCI-H522, with SK-MEL-5, in the test with PC-3, with SK-MEL-28, with M14 and in the test on RPMI-8226 was > 100 µM (inactive) throughout. The GI50 in the test with HL-60, in the test with NCI-H460, in the test with IGROV-1, in the test with NCI/ADR-RES, in the test with TK-10 and in the test on OVCAR-8 was > 100 µM (inactive) in each case. Besides, the GI50 was > 100 µM (inactive) in the test on HCC 2998; > 100 µM (inactive) in the test on NCI-H23; > 100 µM (inactive) in the test on HOP-92; 40.1 µM (inactive) in the test with Hs-578T; > 100 µM (inactive) with SW-620.
As to `O=C1/C(=C/c2cccc(Br)c2)CCc2ccccc21`, the GI50 in the test with NCI-H522 was 10.6 µM (inactive); in the test with PC-3, 14.2 µM (inactive); in the test on SK-MEL-28 it was 18.4 µM (inactive); with M14 it was 15.8 µM (inactive); in the test on RPMI-8226, 2.99 µM (inactive); in the test with HCT-116 it was 7.69 µM (inactive). Further, the GI50 in the test with HL-60 was 5.68 µM (inactive); in the test with NCI-H460, 15.2 µM (inactive); in the test on IGROV-1, 11.4 µM (inactive); in the test with NCI/ADR-RES, 14 µM (inactive); in the test with TK-10, 16.5 µM (inactive); in the test on OVCAR-8 it was 16.1 µM (inactive). Moreover, the GI50 is 17.2 µM (inactive) with DU-145; 15.8 µM (inactive) in the test with NCI-H23; 14.7 µM (inactive) in the test on HOP-92; 6.05 µM (inactive) with Hs-578T; 5.51 µM (inactive) with SW-620.
